Results taken from the supplement of paper PMC10331698.
± gives the standard deviation of the averaged measurements.

How the values were obtained:
Assay in all cases: level (log10 ratio to DMSO vehicle control); higher = higher biomarker level / cell amount than vehicle control
[1] = compound: C=C(C)C(=O)OCC(F)(F)C(F)(F)C(F)(F)F [2,2,3,3,4,4,4-Heptafluorobutyl methacrylate]; conditions: in DMSO
Description: (§1)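 BioMAP Diversity Plus panel of 12 human primary cell co-culture systems (3C, 4H, LPS, SAg, BT, BF4T, BE3C, CASM3C, HDF3CGF, KF3CT, MyoF, Mphg). Compounds were added 1 h before stimulation and left for 24 h (MyoF 48 h; BT 72 h for soluble read-outs or 6 d for IgG). Biomarkers were read by ELISA, cytotoxicity by SRB, PBMC viability and proliferation by Alamar Blue. Each well value was divided by the mean of 8 DMSO control wells on the same plate and log10 transformed; duplicate blinded samples were tested at 4 concentrations.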

[2] = compound: C=CC(=O)OCC(F)(F)C(F)(F)C(F)(F)C(F)(F)COC(=O)C=C [1H,1H,6H,6H-Perfluorohexane-1,6-diol diacrylate]; conditions: 6700 nM; in DMSO
Description: as §1

[3] = compound: FC(F)(I)C(F)(F)C(F)(F)C(F)(F)C(F)(F)C(F)(F)I [1,6-Diiodoperfluorohexane]; conditions: 6700 nM; in DMSO
Description: as §1

[4] = compound: O=C(Cl)C(F)(F)C(F)(F)C(F)(F)C(=O)Cl [Hexafluoroglutaryl chloride]; conditions: in DMSO
Description: as §1

[5] = compound: O=C(O)C(F)(F)C(F)(F)C(F)(F)C(F)(F)C(F)(F)C(F)(F)C(F)(F)F [Ammonium perfluorooctanoate]; conditions: in DMSO
Description: as §1

Perfluorooctanoic acid = compound: O=C(O)C(F)(F)C(F)(F)C(F)(F)C(F)(F)C(F)(F)C(F)(F)C(F)(F)F [Perfluorooctanoic acid]; conditions: in DMSO
Description: as §1

[6] = compound: O=S(=O)(OCC(F)(F)F)C(F)(F)C(F)(F)C(F)(F)C(F)(F)F [2,2,2-Trifluoroethyl perfluorobutanesulfonate]; conditions: in DMSO
Description: as §1

[7] = compound: OCCC(F)(F)C(F)(F)C(F)(F)C(F)(F)C(F)(F)C(F)(F)C(F)(F)C(F)(F)F [8:2 Fluorotelomer alcohol]; conditions: 6700 nM; in DMSO
Description: as §1

Test System	level (log10) ([1]; 6700 nM)	level (log10) ([1]; 20000 nM)	level (log10) ([1]; 60000 nM)	level (log10) [2]	level (log10) [3]	level (log10) ([4]; 6700 nM)	level (log10) ([4]; 20000 nM)	level (log10) ([4]; 60000 nM)	level (log10) ([5]; 6700 nM)	level (log10) ([5]; 20000 nM)	level (log10) ([5]; 60000 nM)	level (log10) (Perfluorooctanoic acid; 6700 nM)	level (log10) (Perfluorooctanoic acid; 20000 nM)	level (log10) (Perfluorooctanoic acid; 60000 nM)	level (log10) ([6]; 6700 nM)	level (log10) ([6]; 20000 nM)	level (log10) ([6]; 60000 nM)	level (log10) [7]
BE3C:CD87/uPAR	-0.004 ± 0.0028	0.0075 ± 0.015	0.017 ± 0.027	0.014 ± 0.023	0.059	-0.0055 ± 0.0021	-0.009 ± 0.0028	0.011 ± 0.0085	0.0105 ± 0.022	0.0315 ± 0.0035	0.0125 ± 0.023	-0.039 ± 0.057	-0.028 ± 0.072	0.0245 ± 0.023	-0.048 ± 0.0099	-0.024 ± 0.018	-0.0355 ± 0.026	-0.023 ± 0.041
BE3C:EGFR	0.0195 ± 0.03	0.0155 ± 0.029	0.012 ± 0.017	-0.034 ± 0.0099	-0.015	0.009 ± 0.0099	0.0015 ± 0.0021	-0.0345 ± 0.0092	-0.006 ± 0.0028	0.001 ± 0.028	-0.022 ± 0.013	-0.0165 ± 0.012	-0.025 ± 0.011	-0.018 ± 0.037	0.006 ± 0.0028	0.007	0.0025 ± 0.00071	-0.019 ± 0.0014
BF4T:MMP-9	-0.015 ± 0.025	-0.0265 ± 0.0078	0.0195 ± 0.049	0.0005 ± 0.00071	-0.059	-0.0075 ± 0.025	-0.0125 ± 0.025	0.005 ± 0.0071	0.017 ± 0.023	0.028 ± 0.0057	0.0375 ± 0.025	-0.006 ± 0.0057	0.02 ± 0.013	0.0215 ± 0.013	-0.017 ± 0.0028	-0.0145 ± 0.029	-0.0225 ± 0.0064	-0.0325 ± 0.0078
3C:SRB	-0.0125 ± 0.0021	-0.001 ± 0.0057	0.0035 ± 0.00071	-0.0015 ± 0.028	0.03	-0.0025 ± 0.0035	0.008 ± 0.013	0.013 ± 0.0071	-0.0015 ± 0.012	-0.014 ± 0.0042	-0.05 ± 0.0099	-0.017 ± 0.0042	0.0045 ± 0.019	-0.102 ± 0.044	-0.0135 ± 0.0021	-0.014 ± 0.0028	-0.0295 ± 0.012	-0.014 ± 0.0099
BF4T:MMP-1	0.009 ± 0.018	-0.001 ± 0.013	0.009 ± 0.0057	0.0365 ± 0.018	-0.006	-0.0125 ± 0.018	0.003 ± 0.0028	0 ± 0.017	-0.0025 ± 0.016	-0.004 ± 0.014	0.0105 ± 0.012	-0.002 ± 0.0057	-0.0005 ± 0.0078	0.0265 ± 0.018	-0.0035 ± 0.015	-0.0005 ± 0.015	-0.0095 ± 0.0021	0.0035 ± 0.016
3C:CXCL8/IL-8	0.0395 ± 0.042	0.039 ± 0.0014	0.051 ± 0.04	0.017 ± 0.024	-0.008	-0.007 ± 0.023	-0.0075 ± 0.029	0.047 ± 0.048	0.0015 ± 0.0021	0.023 ± 0.027	0.085 ± 0.065	0.0295 ± 0.035	0.0585 ± 0.026	0.154 ± 0.0057	0.0105 ± 0.012	0.014 ± 0.024	0.064 ± 0.071	-0.003 ± 0.034
SAg:CXCL9/MIG	-0.004 ± 0.03	0.002 ± 0.011	0.009 ± 0.013	-0.009 ± 0.018	-0.008	0 ± 0.016	-0.0005 ± 0.011	0.013 ± 0.017	-0.004	0.003 ± 0.013	0.009 ± 0.0085	-0.0085 ± 0.0021	-0.008 ± 0.0028	0.004 ± 0.017	0.0035 ± 0.015	-0.004 ± 0.0014	0 ± 0.013	-0.006 ± 0.0014
BE3C:CXCL11/I-TAC	0.0215 ± 0.03	0.0225 ± 0.005	0.017 ± 0.0085	-0.0115 ± 0.0021	0.024	0.0285 ± 0.015	0.0105 ± 0.046	0.021 ± 0.031	0.0095 ± 0.018	0.0125 ± 0.019	-0.0295 ± 0.0035	-0.0225 ± 0.032	-0.0225 ± 0.029	-0.0095 ± 0.016	0.017 ± 0.0057	-0.003 ± 0.0085	0.006 ± 0.0085	-0.012 ± 0.0014
LPS:CD69	-0.019 ± 0.013	-0.024 ± 0.028	-0.024 ± 0.011	-0.052 ± 0.023	-0.019	0.0045 ± 0.021	-0.0195 ± 0.07	-0.005 ± 0.051	-0.0165 ± 0.012	-0.045 ± 0.0085	-0.142 ± 0.031	0.0445 ± 0.096	0.0475 ± 0.046	-0.025 ± 0.092	0.0015 ± 0.15	0.001 ± 0.088	-0.073 ± 0.16	-0.063 ± 0.11
BT:sIL-17F	-0.0825 ± 0.14	0.0525 ± 0.083	0.0455 ± 0.033	-0.816 ± 0.025	0.06	0.0195 ± 0.09	-0.095 ± 0.0071	-0.0065 ± 0.005	-0.0405 ± 0.13	-0.0495 ± 0.094	-0.0615 ± 0.14	0.032 ± 0.04	0.0665 ± 0.11	0.095 ± 0.035	0.003 ± 0.023	0.0145 ± 0.0064	-0.0275 ± 0.005	0.013 ± 0.065
LPS:CD142/Tissue Factor	-0.0225 ± 0.026	-0.013 ± 0.025	0.02 ± 0.0057	-0.0415 ± 0.00071	0.019	0.0275 ± 0.018	-0.0025 ± 0.044	-0.0185 ± 0.0035	0.016 ± 0.03	0.0045 ± 0.016	0.0105 ± 0.015	0.0445 ± 0.056	0.008 ± 0.089	0.042 ± 0.017	0.0325 ± 0.12	-0.069 ± 0.13	-0.153 ± 0.13	-0.0205 ± 0.1
4H:CD62P/P-selectin	-0.002 ± 0.052	-0.008 ± 0.037	0.129 ± 0.021	-0.104 ± 0.026	-0.001	-0.012 ± 0.033	0.0045 ± 0.026	-0.0045 ± 0.043	0.0195 ± 0.012	0.043 ± 0.088	0.0515 ± 0.036	-0.005 ± 0.013	0.001 ± 0.0014	0.05 ± 0.02	-0.0365 ± 0.016	-0.034 ± 0.0085	-0.0525 ± 0.015	-0.0615 ± 0.0064
4H:CD106/VCAM-1	0.012 ± 0.04	0.019 ± 0.028	0.02 ± 0.025	-0.057 ± 0.0057	-0.052	0.0015 ± 0.0092	-0.005 ± 0.021	0.001 ± 0.011	0.0225 ± 0.0021	0.036 ± 0.0085	0.0215 ± 0.026	0.0045 ± 0.022	-0.001 ± 0.034	-0.0165 ± 0.039	-0.004 ± 0.025	-0.008 ± 0.014	0.0015 ± 0.0021	-0.008 ± 0.013
BF4T:CCL2/MCP-1	0.026 ± 0.0042	0.0355 ± 0.0021	0.0345 ± 0.022	-0.055 ± 0.02	-0.172	-0.0225 ± 0.00071	-0.009 ± 0.0028	-0.0185 ± 0.005	-0.0015 ± 0.013	0.0005 ± 0.036	-0.016 ± 0.069	0.0265 ± 0.018	0.015 ± 0.013	-0.0835 ± 0.039	0.024 ± 0.0028	0.0125 ± 0.005	0.017 ± 0.021	-0.0135 ± 0.0035
